Laboratory results from ChEMBL document CHEMBL3853262 (Medchemcomm, 2016).
The source made the active and inactive calls. The calls are words filed in the database; no cut-off is given here.

Experiments:
THP-1 [1] = experiment: Proapoptotic activity in human THP1 cells assessed as necrotic cells at 25 uM after 1 hr by annexin V/propidium iodide staining-based capillary cytometric method relative to control; type: functional
NTERA-2-cl-D1 [2] = experiment: Proapoptotic activity in human NT2/D1 cells assessed as viable cells at 25 uM after 3 hrs by annexin V/propidium iodide staining-based capillary cytometric method relative to control; type: functional; details: NTERA-2-cl-D1, 3 h, read-out: Activity
THP-1 [3] = experiment: Induction of apoptosis in human THP1 cells assessed as late apoptotic cells at 25 uM after 4 hrs by annexin V/propidium iodide staining-based capillary cytometric method (reference value: 0.34%); type: functional
BXPC-3 = experiment: Proapoptotic activity in human BxPC3 cells by annexin V-FITC/propidium iodide staining-based capillary cytometric method; type: functional, cell-based
NTERA-2-cl-D1 [4] = experiment: Proapoptotic activity in human NT2/D1 cells assessed as viable cells at 25 uM after 5 hrs by annexin V/propidium iodide staining-based capillary cytometric method relative to control; type: functional; details: NTERA-2-cl-D1, 5 h, read-out: Activity
NTERA-2-cl-D1 [5] = experiment: Induction of apoptosis in human NT2/D1 cells assessed as activation of caspase 3/7 by measuring DNA fragmentation at 25 uM after 3 hrs by 7-AAD staining-based capillary cytometric method; type: functional, cell-based
THP-1 [6] = experiment: Proapoptotic activity in human THP1 cells assessed as necrotic cells at 25 uM after 3 hrs by annexin V/propidium iodide staining-based capillary cytometric method relative to control; type: functional
NTERA-2-cl-D1 [7] = experiment: Proapoptotic activity in human NT2/D1 cells assessed as late apoptotic cells at 25 uM after 7 hrs by annexin V/propidium iodide staining-based capillary cytometric method relative to control; type: functional
THP-1 [8] = experiment: Induction of apoptosis in human THP1 cells assessed as […] cells at 25 uM after 4 hrs in presence of pan caspase inhibitor Z-VAD-fmk by annexin V/propidium iodide staining-based capillary cytometric method (reference value: 96.40%); type: functional
NTERA-2-cl-D1 [9] = experiment: Proapoptotic activity in human NT2/D1 cells assessed as necrotic cells at 25 uM after 3 hrs by annexin V/propidium iodide staining-based capillary cytometric method relative to control; type: functional
NTERA-2-cl-D1 [10] = experiment: Proapoptotic activity in human NT2/D1 cells assessed as necrotic cells at 25 uM after 7 hrs by annexin V/propidium iodide staining-based capillary cytometric method relative to control; type: functional
THP-1 [11] = experiment: Proapoptotic activity in human THP1 cells assessed as viable cells at 25 uM after 1 hr by annexin V/propidium iodide staining-based capillary cytometric method relative to control; type: functional; details: THP-1, 1 h, read-out: Activity
NTERA-2-cl-D1 [12] = experiment: Proapoptotic activity in human NT2/D1 cells assessed as necrotic cells at 25 uM after 5 hrs by annexin V/propidium iodide staining-based capillary cytometric method relative to control; type: functional
THP-1 [13] = experiment: Proapoptotic activity in human THP1 cells assessed as viable cells at 25 uM after 5 hrs by annexin V/propidium iodide staining-based capillary cytometric method relative to control; type: functional; details: THP-1, 5 h, read-out: Activity
THP-1 [14] = experiment: Proapoptotic activity in human THP1 cells assessed as early apoptotic cells at 25 uM after 5 hrs by annexin V/propidium iodide staining-based capillary cytometric method relative to control; type: functional
NTERA-2-cl-D1 [15] = experiment: Proapoptotic activity in human NT2/D1 cells assessed as early apoptotic cells at 25 uM after 5 hrs by annexin V/propidium iodide staining-based capillary cytometric method relative to control; type: functional
NTERA-2-cl-D1 [16] = experiment: Proapoptotic activity in human NT2/D1 cells assessed as early apoptotic cells at 25 uM after 3 hrs by annexin V/propidium iodide staining-based capillary cytometric method relative to control; type: functional
THP-1 [17] = experiment: Induction of apoptosis in human THP1 cells assessed as […] cells at 25 uM after 4 hrs by annexin V/propidium iodide staining-based capillary cytometric method (reference value: 96.40%); type: functional
ASPC1 = experiment: Proapoptotic activity in human AsPC1 cells by annexin V-FITC/propidium iodide staining-based capillary cytometric method; type: functional, cell-based
THP-1 [18] = experiment: Induction of apoptosis in human THP1 cells assessed as activation of caspase 8/9 at 25 uM by 7-AAD staining-based capillary cytometric method; type: functional, cell-based
NTERA-2-cl-D1 [19] = experiment: Induction of apoptosis in human NT2/D1 cells assessed as necrotic cells at 25 uM after 4 hrs by annexin V/propidium iodide staining-based capillary cytometric method (reference value: 0.10%); type: functional
THP-1 [20] = experiment: Induction of apoptosis in human THP1 cells assessed as late necrotic cells at 25 uM after 4 hrs by annexin V/propidium iodide staining-based capillary cytometric method (reference value: 0.04%); type: functional
NTERA-2-cl-D1 [21] = experiment: Induction of DNA fragmentation in human NT2/D1 cells at 25 uM after 6 to 24 hrs by propidium iodide/RNase staining-based capillary cytometric method; type: functional, cell-based
NTERA-2-cl-D1 [22] = experiment: Induction of apoptosis in human NT2/D1 cells assessed as late apoptotic cells at 25 uM after 4 hrs by annexin V/propidium iodide staining-based capillary cytometric method (reference value: 0.70%); type: functional
THP-1 [23] = experiment: Induction of DNA fragmentation in human THP1 cells at 25 uM after 6 to 24 hrs by propidium iodide/RNase staining-based capillary cytometric method; type: functional, cell-based
NTERA-2-cl-D1 [24] = experiment: Induction of apoptosis in human NT2/D1 cells assessed as viable cells at 25 uM after 4 hrs in presence of pan caspase inhibitor Z-VAD-fmk by annexin V/propidium iodide staining-based capillary cytometric method (reference value: 95.80%); type: functional; details: NTERA-2-cl-D1, 4 h, read-out: Activity
THP-1 [25] = experiment: Induction of apoptosis in human THP1 cells assessed as early apoptotic cells at 25 uM after 4 hrs by annexin V/propidium iodide staining-based capillary cytometric method (reference value: 3.22%); type: functional
THP-1 [26] = experiment: Proapoptotic activity in human THP1 cells assessed as necrotic cells at 25 uM after 7 hrs by annexin V/propidium iodide staining-based capillary cytometric method relative to control; type: functional
THP-1 [27] = experiment: Proapoptotic activity in human THP1 cells assessed as late apoptotic cells at 25 uM after 5 hrs by annexin V/propidium iodide staining-based capillary cytometric method relative to control; type: functional

EC50 (BXPC-3): 58 µM
EC50 (ASPC1): 32 µM
Compound: CNc1nc(-c2cccc(NC(=O)c3cc4ccccc4[nH]3)c2)c[nH]1.Cl
Activity (THP-1 [1]): 0.2%
viability at 25 µM (NTERA-2-cl-D1 [2]): 73.9%
Activity (THP-1 [3]): 89.44%
viability at 25 µM (NTERA-2-cl-D1 [4]): 47%
Activity (NTERA-2-cl-D1 [5]): Active
Activity (THP-1 [6]): 0.3%
Activity (NTERA-2-cl-D1 [7]): 13.18%
Activity (THP-1 [8]): 18.04%
Activity (NTERA-2-cl-D1 [9]): 0.11%
Activity (NTERA-2-cl-D1 [10]): 0%
viability at 25 µM (THP-1 [11]): 95.7%
Activity (NTERA-2-cl-D1 [12]): 0.6%
viability at 25 µM (THP-1 [13]): 28.6%
Activity (THP-1 [14]): 33.25%
Activity (NTERA-2-cl-D1 [15]): 46.36%
Activity (NTERA-2-cl-D1 [16]): 22.77%
Activity (THP-1 [17]): 5.34%
Activity (THP-1 [18]): Active
Activity (NTERA-2-cl-D1 [19]): 0.3%
Activity (THP-1 [20]): 0.26%
Activity (NTERA-2-cl-D1 [21]): Active
Activity (NTERA-2-cl-D1 [22]): 5.16%
Activity (THP-1 [23]): Active
viability at 25 µM (NTERA-2-cl-D1 [24]): 88.8%
Activity (THP-1 [25]): 4.96%
Activity (THP-1 [26]): 0.2%
Activity (THP-1 [27]): 38.05%
